Experiment [1] concerns the target T1, Neutrophil Elastase (recombinant neutrophil elastase) (Homo sapiens, UniProt P08246).
T1 construct: purchased Enzo LifeSciences
T1 sequence (P08246 30-267): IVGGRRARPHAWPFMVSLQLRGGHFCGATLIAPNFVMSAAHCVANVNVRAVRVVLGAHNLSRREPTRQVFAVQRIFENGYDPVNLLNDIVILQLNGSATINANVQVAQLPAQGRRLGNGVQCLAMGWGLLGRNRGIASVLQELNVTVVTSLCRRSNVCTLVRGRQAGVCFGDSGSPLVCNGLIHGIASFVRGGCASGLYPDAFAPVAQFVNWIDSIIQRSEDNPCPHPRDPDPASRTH
Put plainly: IC50 determination, spectrophotometric protease assay. In kind it is biochemical. Summed up: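 Substrate at its Km; 30 min, 37°C; readout pNA (absorbance) or AMC (fluorescence) release. Triage at 10/1/.1 μM, full IC50 only if ≥50% inhibition at 10 μM. Duplicates, 4-parameter logistic fit.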

The target of a further experiment is β-tryptase (Homo sapiens, UniProt P20231). Put plainly: Labeling and detection of recombinant proteases (SDS-PAGE blot, NeutrAvidin-HRP). In kind it is binding. To be noted: 1 µM ABP, 100 ng protease, 30 min 37°C, denaturing SDS-PAGE blot. As for the experimental part: Recombinant proteases (100 ng) were labeled with 1 µM ABP in reaction buffer in a final volume of 40 µL for 30 min at 37°C. After the addition of 4X Laemmli buffer (Bio-Rad, GmbH) supplemented with Bond-Breaker Tris (2-CarboxyEthyl)Phosphine (TCEP) Solution (Thermo Scientific, United States), the samples were heated at 95°C for 5 min and loaded into 4%–20% Mini-Protean TGX precast gels (Bio-Rad, GmbH). After electrophoresis, the proteins were blotted onto nitrocellulose membranes using the Trans-Blot Transfer Turbo System (Bio-Rad). Membranes were incubated with NeutrAvidin-HRP (1:50,000), and bands were visualized with ECL Select Western Blot Detection Reagent (GE Healthcare Life Sciences) by chemiluminescence (Chemidoc XRS; Bio-Rad). The molecular weight of each band was determined with the Image Lab Software v5 (Bio-Rad).
To further characterize the newly synthesized compounds and their potential to be used as ABPs, nine desthiobiotin probes were used for the labeling and detection of recombinant proteases. The arginine (45b–46b) and the proline-lysine (58b) desthiobiotin probes were used as reference compounds. Whereas the benzyl guanidine (50b, 52b, 54b) and phenyl guanidine probes (55b–57b) were used to determine whether the mechanism of inhibition (reversible or irreversible) is an obstacle to visualize the proteases. Samples of human recombinant proteases (trypsin-3, β-tryptase, and CatG) were incubated with the different probes before electrophoresis and detection with NeutrAvidin-HRP on a Western blot. Figure 7A illustrates the ability of the desthiobiotin probes to indicate the presence of the corresponding trypsin-like enzyme. […] This effect can be explained due to the strong interactions between the active site of the protease and the probes. The high affinity and the slow off-rates were described in Table 5 by the equilibrium constants KI*. Assuming that there is an excess of inhibitor over enzyme, the free inhibitor concentration must be very low, lower than the KI*, in order for the complex to dissociate. Therefore, the high affinity complex E*I survives during the whole process of labeling, gel electrophoresis, and visualization.

“Also recorded” adds a separate entry of the source. Where a name gives a salt, the structure may show the parent alone.

Chain of β-tryptase (P20231 31-275): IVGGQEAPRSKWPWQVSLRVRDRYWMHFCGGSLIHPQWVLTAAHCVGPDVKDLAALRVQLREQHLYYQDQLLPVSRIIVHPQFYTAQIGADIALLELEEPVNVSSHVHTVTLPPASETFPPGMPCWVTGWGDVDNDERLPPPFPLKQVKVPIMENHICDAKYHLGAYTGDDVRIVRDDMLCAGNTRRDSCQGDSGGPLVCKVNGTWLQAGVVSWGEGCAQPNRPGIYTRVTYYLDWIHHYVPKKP

`C#CCCCOC(=O)NC(CCCNC(=N)N)P(=O)(Oc1ccccc1)Oc1ccccc1` (stereo not drawn) [32b]: the IC50 – broadly, the concentration needed to halve the response being measured – in experiment [1] is above 10 µM.

Consider `C#CCCCOC(=O)NC(Cc1ccc(NC(=N)N)cc1)P(=O)(Oc1ccccc1)Oc1ccccc1` (stereo not drawn) [34b], for which the IC50 in experiment [1] was above 10 µM.

Consider `C#CCCCOC(=O)NC(Cc1ccc(NC(=N)N)cc1)P(=O)(Oc1ccc(NC(C)=O)cc1)Oc1ccc(NC(C)=O)cc1` (stereo not drawn) [35b], for which the IC50 in experiment [1] was above 10 µM.

For `C#CCCCOC(=O)NC(Cc1ccc(NC(=N)N)cc1)P(=O)(Oc1ccc(Cl)cc1)Oc1ccc(Cl)cc1` (stereo not drawn) [36b], the IC50 in experiment [1] was above 10 µM.

As to `C#CCCCOC(=O)NC(c1ccc(NC(=N)N)cc1)P(=O)(Oc1ccccc1)Oc1ccccc1.O=C(O)C(F)(F)F` (stereo not drawn) [37b, Pent-4-yn-1-yl ((diphenoxyphosphoryl)(4-guanidinophenyl)methyl)carbamate trifluoroacetate salt], in experiment [1], the IC50 was above 10 µM.

Turning to `C#CCCCOC(=O)NC(C1CCN(C(=N)N)CC1)P(=O)(Oc1ccccc1)Oc1ccccc1` (stereo not drawn) [41b], the IC50 in experiment [1] is above 10 µM.

`C[C@@H]1NC(=O)N[C@@H]1CCCCCC(=O)NCCOCCOCCOCCn1cc(CCCOC(=O)NC(CCCNC(=N)N)P(=O)(Oc2ccccc2)Oc2ccccc2)nn1` (stereo partly drawn) [45b]: on β-tryptase, the “labeling of recombinant β-tryptase” value is reported as “not good ABP candidates”.

As for `C[C@@H]1NC(=O)N[C@@H]1CCCCCC(=O)NCCOCCOCCOCCn1cc(CCCOC(=O)NC(CCCNC(=N)N)P(=O)(Oc2ccc(Cl)cc2)Oc2ccc(Cl)cc2)nn1` (stereo partly drawn) [46b], the “labeling of recombinant β-tryptase” value at β-tryptase is “not good ABP candidates”.

For `C[C@@H]1NC(=O)N[C@@H]1CCCCCC(=O)NCCOCCOCCOCCn1cc(CCCOC(=O)NC(Cc2ccc(NC(=N)N)cc2)P(=O)(Oc2ccccc2)Oc2ccccc2)nn1` (stereo partly drawn) [50b, 3-(1-(18-((4R,5S)-5-methyl-2-oxoimidazolidin-4-yl)-13-oxo-3,6,9-trioxa-12-azaoctadecyl)-1H-1,2,3-triazol-4-yl)propyl (1-(diphenoxyphosphoryl)-2-(4-guanidinophenyl)ethyl)carbamate trifluoroacetate salt], the IC50 in experiment [1] is above 10 µM. Further, the “labeling of recombinant β-tryptase” value on β-tryptase is recorded as “can label”.

Take `CC(=O)Nc1ccc(OP(=O)(Oc2ccc(NC(C)=O)cc2)C(Cc2ccc(NC(=N)N)cc2)NC(=O)OCCCc2cn(CCOCCOCCOCCNC(=O)CCCCC[C@H]3NC(=O)N[C@H]3C)nn2)cc1` (stereo partly drawn) [52b]: the IC50 in experiment [1] is above 10 µM. Also, the “labeling of recombinant β-tryptase” value on β-tryptase is reported as “can label”.

For the compound `C[C@@H]1NC(=O)N[C@@H]1CCCCCC(=O)NCCOCCOCCOCCn1cc(CCCOC(=O)NC(Cc2ccc(NC(=N)N)cc2)P(=O)(Oc2ccc(Cl)cc2)Oc2ccc(Cl)cc2)nn1` (stereo partly drawn) [54b], the IC50 in experiment [1] was above 10 µM. The “labeling of recombinant β-tryptase” value on β-tryptase is given as “can label; also recorded: slightly better resolution”.

Consider `C[C@@H]1NC(=O)N[C@@H]1CCCCCC(=O)NCCOCCOCCOCCn1cc(CCCOC(=O)NC(c2ccc(NC(=N)N)cc2)P(=O)(Oc2ccc(Cl)cc2)Oc2ccc(Cl)cc2)nn1` (stereo partly drawn) [57b], for which, on β-tryptase, the “labeling of recombinant β-tryptase” value is given as “slightly better resolution”.

The values are drawn from paper PMC9849758, “Chemically diverse activity-based probes with unexpected inhibitory mechanisms targeting trypsin-like serine proteases” (Frontiers in Chemistry, 2023).
